Several values for one entry are separate records, joined by “and”; a condition that tells them apart may be missing. Equal values may be shown once.

As a reminder, the viability, T/C is the ratio of treated to control. One may read the IC50 as the midpoint of a concentration-inhibition curve.

In this test the test system is 855422-203-R-J1-PDC complex spheroid growth. The test can be described thus: Anticancer human tumor 855422-203-R-J1-PDC patient-derived bladder carcinoma cell line growth inhibition [AhR]. The settings on record: for viability, T/C: stronger effect = lower value. The method, boiled down: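 Agents were dosed in half-log steps down from roughly clinical Cmax, or from 10 microM where Cmax was unknown, alone and with AhR antagonists. Read-out: percent test/control growth of tumor spheroids containing HUVEC and MSC stromal cells.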
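Further: spheroids exposed to agents for seven days before readout.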
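Wherever viability, T/C is given: percent of DMSO vehicle control luminescence viability.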

Regarding `Cn1ncnc1C1c2n[nH]c(=O)c3cc(F)cc(c23)NC1c1ccc(F)cc1` (configuration not stated), the viability, T/C is 98.3% and 105% and 99% (compound 0.000316 µM); 92.9% and 104% and 110% (compound 0.001 µM); 86.6% and 106% and 105% (compound 0.00316 µM); 104% and 98.8% and 103% (compound 0.01 µM); 99.4% and 102% and 95.6% (compound 0.0316 µM); 82.4% and 101% and 98.5% (compound 0.1 µM). Also, the IC50 (curve of compound) was over 0.1 µM.
Turning to `COc1cccc2c1C(=O)c1c(O)c3c(c(O)c1C2=O)CC(O)(C(=O)CO)CC3OC1CC(N)C(O)C(C)O1` (configuration not stated) + CC(CO)NC(=O)c1cc(-c2ccc(Cl)cc2)nn(-c2cnn(C)c2)c1=O, the IC50 by setting is: (curve of first compound, second compound 0.1 µM) under 0.0316 µM; (curve of first compound, second compound 0.316 µM) under 0.0316 µM; (curve of first compound, second compound 1 µM) under 0.0316 µM; (curve of first compound, second compound 3.16 µM) under 0.0316 µM; (curve of first compound, second compound 10 µM) under 0.0316 µM. The viability, T/C is 34.3% (second compound 0.1 µM, first compound 0.0316 µM); 21.9% (second compound 0.1 µM, first compound 0.1 µM); 4.3% (second compound 0.1 µM, first compound 0.316 µM); 1.57% (second compound 0.1 µM, first compound 1 µM); 1.7% (second compound 0.1 µM, first compound 3.16 µM); 2.88% (second compound 0.1 µM, first compound 10 µM). Besides, the viability, T/C by setting is: (second compound 0.316 µM, first compound 0.0316 µM) 31.6%; (second compound 0.316 µM, first compound 0.1 µM) 21.3%; (second compound 0.316 µM, first compound 0.316 µM) 3.51%; (second compound 0.316 µM, first compound 1 µM) 1.36%; (second compound 0.316 µM, first compound 3.16 µM) 1.02%; (second compound 0.316 µM, first compound 10 µM) 2.82%. For the same compound, the viability, T/C (second compound 1 µM, first compound 0.0316 µM) was 37.7%; the viability, T/C (second compound 1 µM, first compound 0.1 µM) is 21.3%; the viability, T/C (second compound 1 µM, first compound 0.316 µM) was 3.4%; the viability, T/C (second compound 1 µM, first compound 1 µM) is 1.68%; the viability, T/C (second compound 1 µM, first compound 3.16 µM) was 0.81%; the viability, T/C (second compound 1 µM, first compound 10 µM) is 3.37%. Also, the viability, T/C runs as follows: (second compound 3.16 µM, first compound 0.0316 µM) 32%; (second compound 3.16 µM, first compound 0.1 µM) 17.5%; (second compound 3.16 µM, first compound 0.316 µM) 2.92%; (second compound 3.16 µM, first compound 1 µM) 1.21%; (second compound 3.16 µM, first compound 3.16 µM) 0.84%; (second compound 3.16 µM, first compound 10 µM) 4.27%. Further, the viability, T/C runs as follows: (second compound 10 µM, first compound 0.0316 µM) 32.9%; (second compound 10 µM, first compound 0.1 µM) 17.8%; (second compound 10 µM, first compound 0.316 µM) 2.64%; (second compound 10 µM, first compound 1 µM) 0.53%; (second compound 10 µM, first compound 3.16 µM) 0.94%; (second compound 10 µM, first compound 10 µM) 5.77%.
